In PubChem BioAssay (NCI):
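Protocol summary: plate cells (96-well), add compound at 5 concentrations, incubate 48 h, interpolate endpoints linearly. Definition used: TGI = concentration required for complete inhibition of growth.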

Columns and labels:
Experiment in all cases: NCI-60 cell line screen, 48 h
PC-3 prostate = system: PC-3 prostate
RPMI-8226 leukemia = system: RPMI-8226 leukemia
TK-10 renal = system: TK-10 renal
KM12 colon = system: KM12 colon
HCT-15 colon = system: HCT-15 colon
SF-539 CNS = system: SF-539 CNS
KM20L2 colon = system: KM20L2 colon
DMS 273 small cell lung = system: DMS 273 small cell lung
SNB-78 CNS = system: SNB-78 CNS

| Compound | TGI (PC-3 prostate) [µM] | TGI (RPMI-8226 leukemia) [µM] | TGI (TK-10 renal) [µM] | TGI (KM12 colon) [µM] | TGI (HCT-15 colon) [µM] | TGI (SF-539 CNS) [µM] | TGI (KM20L2 colon) [µM] | TGI (DMS 273 small cell lung) [µM] | TGI (SNB-78 CNS) [µM] |
| --- | --- | --- | --- | --- | --- | --- | --- | --- | --- |
| COC1=C2CC(C)CC(OC)C(O)C(C)/C=C(\C)C(OC(N)=O)C(OC)/C=C\C=C(/C)C(=O)NC(=C(/C=N/N3CCCCC3)C1=O)C2=O (stereo unspecified) | > 100 | 42 | 72.1 | 25.1 | 28.6 | 20.8 | 10.1 | 27.6 | 48.3 |
| O=C(O)c1ccccc1NC(=O)C1CCCCC1 |  | > 100 | > 100 | > 100 | > 100 | > 100 | > 100 | > 100 | > 100 |
| O=C(CC1C(=O)Nc2ccccc2S1=O)Nc1ccc(Cl)cc1 (stereo unspecified) |  | > 100 | > 100 | > 100 | > 100 | 51.1 | > 100 | > 100 | > 100 |
| CN(C)C(=S)/N=c1\ss/c(=N\S(=O)(=O)c2ccccc2)n1N(C)C |  | > 100 | > 100 | > 100 | > 100 | > 100 | > 100 | > 100 | > 100 |
| CCCCCCC(/C=N/O)C(C)(O)CCC (stereo unspecified) |  | > 100 | > 100 | > 100 | > 100 | > 100 | > 100 | > 100 | > 100 |
